This is an account of results in US7205305B2, “Inhibitors of p38” (Vertex Pharmaceuticals Incorporated, priority 1996, dated 2007).

In one test the target is activated p38 (Homo sapiens, UniProt Q16539). Kind of test: Inhibition of phosphorylation of EGF receptor peptide ("kinase"). Format: biochemical. The following applies: inhibition of phosphorylation of EGF receptor peptide by activated p38. Here is the method: This assay was carried out in the presence of 10 mM MgCl2, 25 mM β-glycerophosphate, 10% glycerol and 100 mM HEPES buffer at pH 7.6. […] The stock solution was aliquotted into vials. A fixed volume of DMSO or inhibitor in DMSO (final concentration of DMSO in reaction was 5%) was introduced to each vial, mixed and incubated for 15 minutes at room temperature. EGF receptor peptide, […], a phosphoryl acceptor in p38-catalyzed kinase reaction (1), was added to each vial to a final concentration of 200 μM. The kinase reaction was initiated with ATP (100 μM) and the vials were incubated at 30° C. After 30 minutes, the reactions were quenched with equal volume of 10% trifluoroacetic acid (TFA).
The phosphorylated peptide was quantified by HPLC analysis. Separation of phosphorylated peptide from the unphosphorylated peptide was achieved on a reverse phase column (Deltapak, 5 μm, C18 100D, part no. 011795) with a binary gradient of water and acteonitrile, each containing 0.1% TFA.

Test [1] deals with IL-1 production in LPS-stimulated PBMCs. Kind of test: Inhibition of IL-1 production in LPS-stimulated PBMCs ("cell"). Format: cell-based, human. To be noted: Homo sapiens, PBMC. The method, then: (§1) Inhibitors were serially diluted in DMSO from a 20 mM stock. At least 6 serial dilutions were prepared. Then 4× inhibitor stocks were prepared by adding 4 μl of an inhibitor dilution to 1 ml of RPMI1640 medium/10% fetal bovine serum. The 4× inhibitor stocks contained inhibitor at concentrations of 80 μM, 32 μM, 12.8 μM, 5.12 μM, 2.048 μM, 0.819 μM, 0.328 μM, 0.131 μM, 0.052 μM, 0.021 μM etc. The 4× inhibitor stocks were pre-warmed at 37° C. until use.
(§2) Fresh human blood buffy cells were separated from other cells in a Vacutainer CPT from Becton & Dickinson (containing 4 ml blood and enough DPBS without Mg^2+/Ca^2+ to fill the tube) by centrifugation at 1500×g for 15 min. Peripheral blood mononuclear cells (PBMCs), located on top of the gradient in the Vacutainer, were removed and washed twice with RPMI1640 medium/10% fetal bovine serum. PBMCs were collected by centrifugation at 500×g for 10 min. The total cell number was determined using a Neubauer Cell Chamber and the cells were adjusted to a concentration of 4.8×10^6 cells/ml in cell culture medium (RPMI1640 supplemented with 10% fetal bovine serum).
(§3) We placed 100 μl of cell suspension or whole blood in each well of a 96-well cell culture plate. Then we added 50 μl of the 4× inhibitor stock to the cells. Finally, we added 50 μl of a lipopolysaccharide (LPS) working stock solution (16 ng/ml in cell culture medium) to give a final concentration of 4 ng/ml LPS in the assay. The total assay volume of the vehicle control was also adjusted to 200 μl by adding 50 μl cell culture medium. The PBMC cells or whole blood were then incubated overnight (for 12–15 hours) at 37° C./5% CO2 in a humidified atmosphere.
(§4) The next day the cells were mixed on a shaker for 3–5 minutes before centrifugation at 500×g for 5 minutes. Cell culture supernatants were harvested and analyzed by ELISA for levels of IL-1b (R & D Systems, Quantikine kits, #DBL50), TNF-α (BioSource, #KHC3012), IL-6 (Endogen, #EH2-IL6) and IL-8 (Endogen, #EH2-IL8) according to the instructions of the manufacturer. The ELISA data were used to generate dose-response curves from which IC50 values were derived.

In test [2] the test system is TNF production in LPS-stimulated PBMCs. Kind of test: Inhibition of TNF production in LPS-stimulated PBMCs ("cell"). Format: cell-based, human. To be noted: Homo sapiens, PBMC. The method, then: as §1, §2, §3, §4
Test [3] has as its system IL-1 production in whole blood. The test can be described thus: Inhibition of IL-1 production in LPS-stimulated whole blood ("WB"). Format: cell-based, human. To be noted: Homo sapiens. The method, then:
as §1
(§5) Alternatively, whole blood containing an anti-coagulant was used directly in the assay.
as §3, §4

The test system of test [4] is TNF production in whole blood. The test can be described thus: Inhibition of TNF production in LPS-stimulated whole blood ("WB"). Format: cell-based, human. The following applies: Homo sapiens. Here is the method: as §1, §5, §3, §4

Where only a bound is given, the exact number is not on record here.

Sequence of activated p38 (Q16539 whole entry): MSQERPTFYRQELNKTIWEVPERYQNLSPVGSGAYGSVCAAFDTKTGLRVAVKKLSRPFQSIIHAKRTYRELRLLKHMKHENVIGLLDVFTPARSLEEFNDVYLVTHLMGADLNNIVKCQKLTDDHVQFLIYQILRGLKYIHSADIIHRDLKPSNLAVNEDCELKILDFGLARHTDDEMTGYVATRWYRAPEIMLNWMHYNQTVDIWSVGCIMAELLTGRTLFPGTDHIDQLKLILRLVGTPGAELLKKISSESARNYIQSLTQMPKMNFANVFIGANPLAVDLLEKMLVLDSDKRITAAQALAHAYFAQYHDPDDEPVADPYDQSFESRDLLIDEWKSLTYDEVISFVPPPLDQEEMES

Take `O=c1ncn2nc(Sc3ccc(F)c(Cl)c3)ccc2c1-c1c(Cl)cccc1Cl` [Compound 24]: the IC50 is 100 to 1000 nM on activated p38; 100 to 500 nM in test [1]; 100 to 500 nM in test [2]; not below 500 nM in test [3]; not below 500 nM in test [4].

Turning to `O=c1ncn2nc(Sc3ccccn3)ccc2c1-c1c(Cl)cccc1Cl` [Compound 30], the IC50 against activated p38 is not below 1000 nM; in test [1], not below 500 nM; in test [2], not below 500 nM; in test [3], not below 500 nM.

For the molecule `CN(C)/C=N\c1ccc(-c2c(=O)ncn3nc(Sc4ccc(F)cc4Cl)ccc23)c(Cl)c1` [Compound 48], the values for the IC50 (against activated p38; in test [1]; in test [2]) were 100 to 1000 nM, 100 to 500 nM and not below 500 nM, respectively.

`NC(=O)c1ccccc1SC1=NN2CNC(=O)C(c3c(Cl)cccc3Cl)=C2C=C1` [Compound 105]: the IC50 is 100 to 1000 nM against activated p38, not below 500 nM in test [1] and not below 500 nM in test [2].

For `O=C1NCN2N=C(Sc3ccccn3)C=CC2=C1c1c(Cl)cccc1Cl` [Compound 107], the half-inhibitory concentration (IC50) against activated p38 is 100 to 1000 nM; in test [1], not below 500 nM; in test [2] it was not below 500 nM.

`O=C1NCN2C=C(Sc3ccccc3)C=CC2=C1c1c(Cl)cccc1Cl` [Compound 110]: the concentration for half-maximal inhibition (IC50) is 100 to 1000 nM on activated p38, not below 500 nM in test [1] and not below 500 nM in test [2].

As to `O=C1NCN2C=C(Sc3ccc(F)cc3)C=CC2=C1c1c(Cl)cccc1Cl` [Compound 111], the IC50 against activated p38 is 100 to 1000 nM; in test [1], not below 500 nM; in test [2], not below 500 nM.

Take `N=C(N)Nc1cc(F)c(F)cc1SC1=NN2CNC(=O)C(c3c(Cl)cccc3Cl)=C2C=C1` [Compound 124]: the figures for the IC50 (on activated p38; in test [1]; in test [2]) were not below 1000 nM, not below 500 nM and not below 500 nM, respectively.

Turning to `Nc1cc(C(F)(F)F)ccc1SC1=NN2CNC(=O)C(c3c(Cl)cccc3Cl)=C2C=C1` [Compound 126], the results for the IC50 (against activated p38; in test [1]; in test [2]) were not below 1000 nM, 100 to 500 nM and not below 500 nM, respectively.

`NC(=O)Nc1cc(F)ccc1SC1=NN2CNC(=O)C(c3c(Cl)cccc3Cl)=C2C=C1` [Compound 128]: the IC50 was not below 1000 nM on activated p38, not below 500 nM in test [1] and not below 500 nM in test [2].

Regarding `O=C1NCN2N=C(Sc3ccccc3)C=CC2=C1c1c(F)cccc1F` [Compound 130], the IC50 was not above 100 nM against activated p38, 100 to 500 nM in test [1] and not below 500 nM in test [2].

Regarding `Cc1cc(F)ccc1SC1=NN2CNC(=O)C(c3c(Cl)cccc3Cl)=C2C=C1` [Compound 131], the IC50 (at activated p38; in test [1]; in test [2]) was not above 100 nM in each case.

With `Nc1ccc(F)c(C2=C3C=CC(Sc4ccc(F)cc4)=NN3CNC2=O)c1Cl` [Compound 132], the IC50 was not above 100 nM against activated p38, not above 100 nM in test [1] and 100 to 500 nM in test [2].

`Cc1cc(SC2=NN3CNC(=O)C(c4c(Cl)cccc4Cl)=C3C=C2)c(Cl)cc1F` [Compound 133]: the IC50 (against activated p38; in test [1]; in test [2]) was not above 100 nM each time.

As for `COc1cc(Cl)c(C2=C3C=CC(Sc4ccc(F)cc4)=NN3CNC2=O)cc1OC` [Compound 134], the IC50 against activated p38 was not above 100 nM; in test [1], 100 to 500 nM; in test [2], not below 500 nM.

Consider `Cc1cc(Cl)ccc1Sc1ccc(C(C(N)=O)c2c(Cl)cccc2Cl)nn1` (stereo not drawn) [Compound 206], for which the 50% inhibitory concentration (IC50) is 100 to 1000 nM against activated p38, not below 500 nM in test [1] and not below 500 nM in test [2].

In the case of `NC(=O)C(c1cccc(-c2ccc(Cl)cc2)n1)c1c(Cl)cccc1Cl` (stereo not drawn) [Compound 310], the figures for the IC50 (against activated p38; in test [1]; in test [2]) were 100 to 1000 nM, not below 500 nM and not below 500 nM, respectively.

In the case of `Cc1ccc(-c2cccc(C(C(N)=O)c3c(Cl)cccc3Cl)n2)cc1` (stereo not drawn) [Compound 311], the IC50 against activated p38 was 100 to 1000 nM; in test [1] it was not below 500 nM; in test [2] it was not below 500 nM.

Regarding `NC(=O)C(c1cccc(-c2ccc(F)c(Cl)c2)n1)c1c(Cl)cccc1Cl` (stereo not drawn) [Compound 313], the half-inhibitory concentration (IC50) against activated p38 was 100 to 1000 nM; in test [1], not below 500 nM; in test [2], not below 500 nM.

Regarding `NC(=O)C(c1cccc(-c2cccs2)n1)c1c(Cl)cccc1Cl` (stereo not drawn) [Compound 317], the results for the IC50 (against activated p38; in test [1]; in test [2]) were not below 1000 nM, not below 500 nM and not below 500 nM, respectively.

For the molecule `NC(=O)C(c1cccc(-c2cccc(Cl)c2)n1)c1c(Cl)cccc1Cl` (stereo not drawn) [Compound 320], the figures for the IC50 (on activated p38; in test [1]; in test [2]) were not above 100 nM, 100 to 500 nM and 100 to 500 nM, respectively.

For the molecule `COc1cccc(-c2cccc(C(C(N)=O)c3c(Cl)cccc3Cl)n2)c1` (stereo not drawn) [Compound 322], the results for the IC50 (against activated p38; in test [1]; in test [2]) were 100 to 1000 nM, not below 500 nM and not below 500 nM, respectively.

In the case of `NC(=O)C(c1cccc(-c2cccc(F)c2)n1)c1c(Cl)cccc1Cl` (stereo not drawn) [Compound 323], the IC50 at activated p38 was 100 to 1000 nM; in test [1] it was 100 to 500 nM; in test [2], 100 to 500 nM.

`COc1ccccc1-c1cccc(C(C(N)=O)c2c(Cl)cccc2Cl)n1` (stereo not drawn) [Compound 324]: the IC50 against activated p38 is 100 to 1000 nM; in test [1], 100 to 500 nM; in test [2], not below 500 nM.

For `NC(=O)C(c1cccc(-c2ccc(F)c(Cl)c2)n1)c1c(F)cccc1Cl` (stereo not drawn) [Compound 333], the IC50 against activated p38 was 100 to 1000 nM; in test [1], not below 500 nM; in test [2] it was not below 500 nM.

On to `NC(=O)C(c1cccc(-c2cccc(Cl)c2)n1)c1c(F)cccc1Cl` (stereo not drawn) [Compound 341], for which the IC50 against activated p38 lay within 100 to 1000 nM; in test [1], 100 to 500 nM; in test [2], 100 to 500 nM.

On to `NC(=O)C(c1cccc(-c2ccccc2CN2CCCC2)n1)c1c(Cl)cccc1Cl` (stereo not drawn) [Compound 350], for which the IC50 against activated p38 was not below 1000 nM; in test [1] it was 100 to 500 nM; in test [2] it was not below 500 nM.

Consider `NC(=O)C(c1cccc(-c2ccccc2CNCCO)n1)c1c(Cl)cccc1Cl` (stereo not drawn) [Compound 351], for which the IC50 was not below 1000 nM at activated p38, not below 500 nM in test [1] and not below 500 nM in test [2].

Turning to `NC(=O)C(c1cccc(-c2cccc(C(F)(F)F)c2)n1)c1c(F)cccc1Cl` (stereo not drawn) [Compound 353], the IC50 was 100 to 1000 nM against activated p38, not below 500 nM in test [1] and not below 500 nM in test [2].

Turning to `NC(=O)C(c1cccc(-c2ccccc2CNc2ccccc2)n1)c1c(Cl)cccc1Cl` (stereo not drawn) [Compound 358], the IC50 was 100 to 1000 nM against activated p38, not below 500 nM in test [1] and not below 500 nM in test [2].

Turning to `Cc1cc(F)ccc1-c1cccc(C(C(N)=O)c2c(F)cccc2Cl)n1` (stereo not drawn) [Compound 361], the values for the IC50 (on activated p38; in test [1]; in test [2]) were 100 to 1000 nM, 100 to 500 nM and not below 500 nM, respectively.

As to `Cc1ccccc1-c1cccc(N(C(N)=O)c2c(C)cccc2C)n1` [Compound 405], the IC50 is not above 100 nM at activated p38, not above 100 nM in test [1] and 100 to 500 nM in test [2].

Consider `Cc1ccc(-c2cccc(N(C(N)=O)c3c(Cl)cccc3Cl)n2)cc1` [Compound 406], for which the IC50 at activated p38 was 100 to 1000 nM; in test [1] it was 100 to 500 nM; in test [2], not below 500 nM.

In the case of `Cc1cccc(C)c1N(C(N)=O)c1cccc(-c2ccc(F)cc2)n1` [Compound 407], the IC50 was 100 to 1000 nM on activated p38, 100 to 500 nM in test [1] and not below 500 nM in test [2].

For the molecule `NC(=O)N(c1cccc(-c2ccc(Cl)cc2)n1)c1c(Cl)cccc1Cl` [Compound 408], the results for the IC50 (against activated p38; in test [1]; in test [2]) were not above 100 nM, not above 100 nM and 100 to 500 nM, respectively.
